Assay results: patent US20190330224A1, “ACC INHIBITORS AND USES THEREOF” (Gilead Apollo, LLC, priority 2015, published 2019)
≈ marks a conversion by molar mass, not a printed value.

How the values were obtained:
C. krusei ATCC 6258 = experiment: Anti-Fungal Activity Assay (broth microtiter MIC), C. krusei; format: cell-based, Candida krusei; settings: 3 replicates, MIC recorded at 48 h; for MIC: Pichia kudriavzevii, ATCC6258, 48 h, read-out: MIC C. krusei ATCC 6258
How it was run: (§1)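 Candida strains were grown from frozen stock on Sabouraud dextrose agar overnight at 35° C, then suspended directly in RPMI 1640+MOPS and quantified against standard curves. Broth microdilution MIC plates followed CLSI M27-A3; MICs were read visually against growth control at 48 h, with a 24 h read added for soraphen.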

[1] = test system: C. parapsilosis ATCC 22019; experiment: Anti-Fungal Activity Assay (broth microtiter MIC), C. parapsilosis; format: cell-based, Candida parapsilosis; settings: 3 replicates, MIC recorded at 48 h; for MIC: Lodderomyces parapsilosis, ATCC22019, 48 h, read-out: MIC C. parapsilosis ATCC 22019
How it was run: as §1

C. albicans ATCC 90028 = experiment: Anti-Fungal Activity Assay (broth microtiter MIC), C. albicans; format: cell-based, Candida albicans; settings: 3 replicates, MIC recorded at 48 h; for MIC: Candida albicans, ATCC90028, 48 h, read-out: MIC C. albicans ATCC 90028
How it was run: as §1

Human ACC2 = Human ACC2 (Homo sapiens, UniProt O00763); experiment: In vitro ACC2 inhibition assay (ADP-Glo), human ACC2; format: biochemical; settings: 5 nM ACC2, 20 μM ATP, 20 μM acetyl-CoA
Fungal ACC2 = Fungal ACC2 (UniProt Q00955); settings: read-out: Fungal ACC2 (IC50, in vitro ACC2 inhibition)
Fungal ACC2, sequence (Q00955 whole entry): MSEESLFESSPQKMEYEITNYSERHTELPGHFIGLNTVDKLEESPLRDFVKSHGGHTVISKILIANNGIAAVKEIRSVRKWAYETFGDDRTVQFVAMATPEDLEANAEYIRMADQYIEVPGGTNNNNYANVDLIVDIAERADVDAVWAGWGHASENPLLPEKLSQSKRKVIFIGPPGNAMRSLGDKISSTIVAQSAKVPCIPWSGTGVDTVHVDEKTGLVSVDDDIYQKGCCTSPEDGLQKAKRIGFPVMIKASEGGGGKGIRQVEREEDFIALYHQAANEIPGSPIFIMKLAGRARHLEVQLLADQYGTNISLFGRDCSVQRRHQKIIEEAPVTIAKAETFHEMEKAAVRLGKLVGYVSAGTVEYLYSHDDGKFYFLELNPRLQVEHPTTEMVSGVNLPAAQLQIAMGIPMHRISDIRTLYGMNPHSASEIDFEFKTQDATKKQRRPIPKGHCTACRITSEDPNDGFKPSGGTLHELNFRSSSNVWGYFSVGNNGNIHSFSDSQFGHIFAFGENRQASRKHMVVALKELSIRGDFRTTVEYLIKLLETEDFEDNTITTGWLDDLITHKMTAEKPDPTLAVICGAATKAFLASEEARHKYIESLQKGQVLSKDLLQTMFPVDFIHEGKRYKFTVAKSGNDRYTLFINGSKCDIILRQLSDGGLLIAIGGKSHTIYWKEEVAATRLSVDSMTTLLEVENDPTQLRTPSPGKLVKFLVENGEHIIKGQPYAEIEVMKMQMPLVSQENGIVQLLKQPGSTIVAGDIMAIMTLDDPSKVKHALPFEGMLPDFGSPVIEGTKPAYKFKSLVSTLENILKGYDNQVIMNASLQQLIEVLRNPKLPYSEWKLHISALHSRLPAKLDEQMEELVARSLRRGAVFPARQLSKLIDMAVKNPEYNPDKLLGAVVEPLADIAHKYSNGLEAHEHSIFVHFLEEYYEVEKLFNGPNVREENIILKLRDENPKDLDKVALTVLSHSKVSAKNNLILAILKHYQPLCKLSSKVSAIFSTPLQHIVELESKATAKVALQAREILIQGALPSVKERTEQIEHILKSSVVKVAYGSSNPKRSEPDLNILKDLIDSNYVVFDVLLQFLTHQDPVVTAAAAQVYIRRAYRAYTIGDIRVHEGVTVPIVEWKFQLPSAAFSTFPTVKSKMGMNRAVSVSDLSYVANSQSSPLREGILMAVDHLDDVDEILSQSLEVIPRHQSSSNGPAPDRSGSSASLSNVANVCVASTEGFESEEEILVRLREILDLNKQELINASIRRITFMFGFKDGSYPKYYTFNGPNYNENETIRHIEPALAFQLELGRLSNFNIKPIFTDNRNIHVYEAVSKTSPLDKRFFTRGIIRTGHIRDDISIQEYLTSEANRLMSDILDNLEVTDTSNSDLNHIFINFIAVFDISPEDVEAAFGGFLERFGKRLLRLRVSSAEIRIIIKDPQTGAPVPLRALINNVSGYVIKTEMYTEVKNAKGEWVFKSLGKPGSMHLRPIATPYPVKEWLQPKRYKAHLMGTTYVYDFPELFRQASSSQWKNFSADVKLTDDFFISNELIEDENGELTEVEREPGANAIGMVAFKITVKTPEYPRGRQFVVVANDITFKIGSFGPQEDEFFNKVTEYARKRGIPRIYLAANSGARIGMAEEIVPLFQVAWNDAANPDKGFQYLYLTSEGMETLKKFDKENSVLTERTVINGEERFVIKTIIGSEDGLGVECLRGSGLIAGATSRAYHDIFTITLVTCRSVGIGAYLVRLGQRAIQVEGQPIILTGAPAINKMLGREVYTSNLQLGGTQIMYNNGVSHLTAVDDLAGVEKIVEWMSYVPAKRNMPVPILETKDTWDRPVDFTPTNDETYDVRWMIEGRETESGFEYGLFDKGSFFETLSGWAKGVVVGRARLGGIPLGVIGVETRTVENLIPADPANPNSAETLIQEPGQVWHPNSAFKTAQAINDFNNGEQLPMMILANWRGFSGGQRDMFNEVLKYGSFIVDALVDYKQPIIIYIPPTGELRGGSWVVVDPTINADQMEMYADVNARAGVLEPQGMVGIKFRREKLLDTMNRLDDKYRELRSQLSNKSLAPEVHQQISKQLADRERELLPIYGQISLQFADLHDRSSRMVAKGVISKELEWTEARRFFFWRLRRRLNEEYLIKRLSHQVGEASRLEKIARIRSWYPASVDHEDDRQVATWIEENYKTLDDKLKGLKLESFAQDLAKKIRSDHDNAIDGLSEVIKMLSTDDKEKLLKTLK

Human ACC2, sequence (O00763 whole entry): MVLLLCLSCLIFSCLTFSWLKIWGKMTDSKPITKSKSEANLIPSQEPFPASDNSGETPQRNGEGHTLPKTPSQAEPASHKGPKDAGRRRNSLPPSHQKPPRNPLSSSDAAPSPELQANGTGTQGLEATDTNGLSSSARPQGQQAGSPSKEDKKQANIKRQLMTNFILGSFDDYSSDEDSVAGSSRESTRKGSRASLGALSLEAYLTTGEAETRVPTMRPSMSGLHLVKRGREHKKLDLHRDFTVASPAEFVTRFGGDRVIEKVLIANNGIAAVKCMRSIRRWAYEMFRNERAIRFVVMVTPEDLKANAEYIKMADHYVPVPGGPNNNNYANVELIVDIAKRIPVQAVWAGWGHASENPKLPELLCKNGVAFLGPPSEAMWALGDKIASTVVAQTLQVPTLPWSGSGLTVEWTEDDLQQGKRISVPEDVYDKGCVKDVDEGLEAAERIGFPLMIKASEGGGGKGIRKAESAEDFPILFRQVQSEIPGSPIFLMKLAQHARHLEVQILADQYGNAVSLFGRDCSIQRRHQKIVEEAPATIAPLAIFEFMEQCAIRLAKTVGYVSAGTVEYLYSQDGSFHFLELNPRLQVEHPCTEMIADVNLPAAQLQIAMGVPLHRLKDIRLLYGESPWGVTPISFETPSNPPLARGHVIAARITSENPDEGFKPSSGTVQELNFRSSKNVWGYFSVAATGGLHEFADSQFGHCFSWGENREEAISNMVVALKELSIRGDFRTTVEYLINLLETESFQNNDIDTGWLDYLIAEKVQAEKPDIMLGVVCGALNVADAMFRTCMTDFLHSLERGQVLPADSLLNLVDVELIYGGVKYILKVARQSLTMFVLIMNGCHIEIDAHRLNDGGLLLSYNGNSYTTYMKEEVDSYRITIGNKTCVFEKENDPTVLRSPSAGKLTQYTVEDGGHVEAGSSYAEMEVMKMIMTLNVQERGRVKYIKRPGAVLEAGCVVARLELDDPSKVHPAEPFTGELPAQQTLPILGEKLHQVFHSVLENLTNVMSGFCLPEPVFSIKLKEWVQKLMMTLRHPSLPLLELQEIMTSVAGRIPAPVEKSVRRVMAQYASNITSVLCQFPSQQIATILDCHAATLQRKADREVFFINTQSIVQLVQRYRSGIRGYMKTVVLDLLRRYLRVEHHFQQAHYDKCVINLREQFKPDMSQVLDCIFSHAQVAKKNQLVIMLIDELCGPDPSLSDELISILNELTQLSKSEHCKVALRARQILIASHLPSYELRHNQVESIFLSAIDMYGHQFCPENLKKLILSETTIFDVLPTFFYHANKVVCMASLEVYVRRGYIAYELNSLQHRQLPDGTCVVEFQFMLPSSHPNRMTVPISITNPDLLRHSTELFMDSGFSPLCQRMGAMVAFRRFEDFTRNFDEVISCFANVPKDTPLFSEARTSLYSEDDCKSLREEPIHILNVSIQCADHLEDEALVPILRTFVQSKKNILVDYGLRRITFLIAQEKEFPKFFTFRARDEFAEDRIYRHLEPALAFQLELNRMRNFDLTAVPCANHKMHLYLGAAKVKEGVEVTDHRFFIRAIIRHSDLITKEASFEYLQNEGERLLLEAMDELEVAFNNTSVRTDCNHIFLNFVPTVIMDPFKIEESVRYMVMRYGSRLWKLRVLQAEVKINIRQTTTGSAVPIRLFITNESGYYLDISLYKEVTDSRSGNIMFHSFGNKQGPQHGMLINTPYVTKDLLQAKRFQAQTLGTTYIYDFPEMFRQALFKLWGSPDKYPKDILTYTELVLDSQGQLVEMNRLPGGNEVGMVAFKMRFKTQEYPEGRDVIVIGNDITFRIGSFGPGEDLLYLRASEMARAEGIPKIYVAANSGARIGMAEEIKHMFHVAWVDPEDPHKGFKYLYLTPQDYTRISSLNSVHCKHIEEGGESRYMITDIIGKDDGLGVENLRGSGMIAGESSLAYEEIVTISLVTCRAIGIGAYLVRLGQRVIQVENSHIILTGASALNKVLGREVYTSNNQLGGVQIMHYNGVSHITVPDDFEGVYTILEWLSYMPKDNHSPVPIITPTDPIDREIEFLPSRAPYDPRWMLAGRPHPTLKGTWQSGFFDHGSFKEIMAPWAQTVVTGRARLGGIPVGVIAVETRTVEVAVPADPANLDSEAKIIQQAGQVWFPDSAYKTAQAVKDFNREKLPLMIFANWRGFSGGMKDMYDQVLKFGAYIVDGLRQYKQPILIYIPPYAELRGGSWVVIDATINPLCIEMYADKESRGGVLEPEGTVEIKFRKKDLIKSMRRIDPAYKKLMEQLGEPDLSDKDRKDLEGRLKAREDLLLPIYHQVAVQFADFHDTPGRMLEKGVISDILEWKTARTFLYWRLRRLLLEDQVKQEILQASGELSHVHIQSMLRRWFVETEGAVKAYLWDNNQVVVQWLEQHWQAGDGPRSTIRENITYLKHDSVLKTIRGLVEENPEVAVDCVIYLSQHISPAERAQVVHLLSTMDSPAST

| Compound | MIC C. krusei ATCC 6258 (C. krusei ATCC 6258) | MIC C. parapsilosis ATCC 22019 [1] | MIC C. albicans ATCC 90028 (C. albicans ATCC 90028) | IC50 (Human ACC2) | IC50 (Fungal ACC2) | MIC (C. krusei ATCC 6258) | MIC [1] | MIC (C. albicans ATCC 90028) |
| --- | --- | --- | --- | --- | --- | --- | --- | --- |
| COc1ccc(F)cc1[C@H](COc1nc2sc(-n3nccn3)c(C)c2c(=O)n1C1CC(=O)N(C)C1)OCCO (stereo in doubt) [Compound I-113, 2-((R)-2-(5-fluoro-2-methoxyphenyl)-2-(2-hydroxy-ethoxy)ethoxy)-5-methyl-3-((S)-1-methyl-5-oxopyrrolidin-3-yl)-6-(2H-1,2,3-triazol-2-yl)thieno[2,3-d]pyrimidin-4(3H)-one] | C (provided an MIC of 2.1-4.0 μg/mL) | C (provided an MIC of 2.1-4.0 μg/mL) | C (provided an MIC of 2.1-4.0 μg/mL) | > 1000 nM | 10 to 100 nM | – | – | – |
| COc1ccc(F)cc1C(=O)Cn1c(=O)n(C2CCN(C)C2=O)c(=O)c2c(C)c(-n3nccn3)sc21 (stereo in doubt) [Compound I-162, (R)-1-(2-(5-fluoro-2-methoxyphenyl)-2-oxoethyl)-5-methyl-3-(1-methyl-2-oxopyrrolidin-3-yl)-6-(2H-1,2,3-triazol-2-yl)thieno[2,3-d]pyrimidine-2,4(1H,3H)-dione] | C (provided an MIC of 2.1-4.0 μg/mL) | C (provided an MIC of 2.1-4.0 μg/mL) | C (provided an MIC of 2.1-4.0 μg/mL) | 100 to 1000 nM | 10 to 100 nM | – | – | – |
| COCCO[C@@H](Cn1c(=O)n(C2CCNC2=O)c(=O)c2c(C)c(-n3nccn3)sc21)c1cc(F)ccc1OC (stereo partly drawn) [Compound I-1, 1-((R)-2-(5-fluoro-2-methoxyphenyl)-2-(2-methoxyethoxy)ethyl)-5-methyl-3-(2-oxopyrrolidin-3-yl)-6-(2H-1,2,3-triazol-2-yl)thieno[2,3-d]pyrimidine-2,4(1H,3H)-dione] | – | – | – | 2 to 10 nM | 0.7 to 2 nM | 2.1 to 4 µg/mL (≈ 3.76 to 7.16 µM) | 2.1 to 4 µg/mL (≈ 3.76 to 7.16 µM) | 2.1 to 4 µg/mL (≈ 3.76 to 7.16 µM) |
| COCCO[C@@H](Cn1c(=O)n(C2CCN(C)C2=O)c(=O)c2c(C)c(-n3nccn3)sc21)c1cc(F)ccc1OC (stereo partly drawn) [Compound I-2, 1-((R)-2-(5-fluoro-2-methoxyphenyl)-2-(2-methoxy-ethoxy)ethyl)-5-methyl-3-(1-methyl-2-oxopyrrolidin-3-yl)-6-(2H-1,2,3-triazol-2-yl)thieno[2,3-d]pyrimidine-2,4(1H,3H)-dione] | – | – | – | 10 to 100 nM | 2 to 10 nM | 2.1 to 4 µg/mL (≈ 3.67 to 6.99 µM) | 2.1 to 4 µg/mL (≈ 3.67 to 6.99 µM) | 2.1 to 4 µg/mL (≈ 3.67 to 6.99 µM) |
| COCCO[C@@H](Cn1c(=O)n(C2CCN(C(C)C)C2=O)c(=O)c2c(C)c(-n3nccn3)sc21)c1cc(F)ccc1OC (stereo partly drawn) [Compound I-4, 1-((R)-2-(5-fluoro-2-methoxyphenyl)-2-(2-methoxy-ethoxy)ethyl)-3-(1-isopropyl-2-oxopyrrolidin-3-yl)-5-methyl-6-(2H-1,2,3-triazol-2-yl)thieno[2,3-d]pyrimidine-2,4(1H,3H)-dione] | – | – | – | 10 to 100 nM | 2 to 10 nM | 2.1 to 4 µg/mL (≈ 3.5 to 6.66 µM) | 2.1 to 4 µg/mL (≈ 3.5 to 6.66 µM) | 2.1 to 4 µg/mL (≈ 3.5 to 6.66 µM) |
| COc1ccc(F)cc1[C@H](Cn1c(=O)n(C2CCNC2=O)c(=O)c2c(C)c(-n3nccn3)sc21)OCCO (stereo partly drawn) [Compound I-5, 1-((R)-2-(5-fluoro-2-methoxyphenyl)-2-(2-hydroxyethoxy)ethyl)-5-methyl-3-(2-oxopyrrolidin-3-yl)-6-(2H-1,2,3-triazol-2-yl)thieno[2,3-d]pyrimidine-2,4(1H,3H)-dione] | – | – | – | 2 to 10 nM | 0.7 to 2 nM | 2.1 to 4 µg/mL (≈ 3.86 to 7.35 µM) | 2.1 to 4 µg/mL (≈ 3.86 to 7.35 µM) | 2.1 to 4 µg/mL (≈ 3.86 to 7.35 µM) |
| COCCO[C@@H](Cn1c(=O)n(C2CCCNC2=O)c(=O)c2c(C)c(-n3nccn3)sc21)c1cc(F)ccc1OC (stereo partly drawn) [Compound I-13, 1-((R)-2-(5-fluoro-2-methoxyphenyl)-2-(2-methoxy-ethoxy)ethyl)-5-methyl-3-(2-oxopiperidin-3-yl)-6-(2H-1,2,3-triazol-2-yl)thieno[2,3-d]pyrimidine-2,4(1H,3H)-dione] | – | – | – | 10 to 100 nM | 0.7 to 2 nM | 2.1 to 4 µg/mL (≈ 3.67 to 6.99 µM) | 2.1 to 4 µg/mL (≈ 3.67 to 6.99 µM) | 2.1 to 4 µg/mL (≈ 3.67 to 6.99 µM) |
| CCN1CCCC(n2c(=O)c3c(C)c(-n4nccn4)sc3n(C[C@H](OCCOC)c3cc(F)ccc3OC)c2=O)C1=O (stereo partly drawn) [Compound I-15, 3-(1-ethyl-2-oxopiperidin-3-yl)-1-((R)-2-(5-fluoro-2-methoxyphenyl)-2-(2-methoxyethoxy)ethyl)-5-1-methyl-6-(2H-1,2,3-triazol-2-yl)thieno[2,3-d]pyrimidine-2,4(1H,3H)-dione] | – | – | – | 10 to 100 nM | 10 to 100 nM | 2.1 to 4 µg/mL (≈ 3.5 to 6.66 µM) | 2.1 to 4 µg/mL (≈ 3.5 to 6.66 µM) | 2.1 to 4 µg/mL (≈ 3.5 to 6.66 µM) |
| COCCO[C@@H](Cn1c(=O)n(C2CCCN(C(C)C)C2=O)c(=O)c2c(C)c(-n3nccn3)sc21)c1cc(F)ccc1OC (stereo partly drawn) [Compound I-16, 1-((R)-2-(5-fluoro-2-methoxyphenyl)-2-(2-methoxy-ethoxy)ethyl)-3-(1-isopropyl-2-oxopiperidin-3-yl)-5-methyl-6-(2H-1,2,3-triazol-2-yl)thieno[2,3-d]pyrimidine-2,4(1H,3H)-dione] | – | – | – | 100 to 1000 nM | 2 to 10 nM | 2.1 to 4 µg/mL (≈ 3.42 to 6.51 µM) | 2.1 to 4 µg/mL (≈ 3.42 to 6.51 µM) | 2.1 to 4 µg/mL (≈ 3.42 to 6.51 µM) |
| COc1ccc(F)cc1[C@H](Cn1c(=O)n(C2CCCN(C)C2=O)c(=O)c2c(C)c(-n3nccn3)sc21)OCCO (stereo partly drawn) [Compound I-18, 1-((R)-2-(5-fluoro-2-methoxyphenyl)-2-(2-hydroxy-ethoxy)ethyl)-5-methyl-3-(1-methyl-2-oxopiperidin-3-yl)-6-(2H-1,2,3-triazol-2-yl)thieno[2,3-d]pyrimidine-2,4(1H,3H)-dione] | – | – | – | 10 to 100 nM | 2 to 10 nM | 2.1 to 4 µg/mL (≈ 3.67 to 6.99 µM) | 2.1 to 4 µg/mL (≈ 3.67 to 6.99 µM) | 2.1 to 4 µg/mL (≈ 3.67 to 6.99 µM) |
| COc1ccc(F)cc1[C@H](Cn1c(=O)n(C2CCCN(C)C2=O)c(=O)c2c(C)c(-n3nccn3)sc21)OC1CCOCC1 (stereo partly drawn) [Compound I-22, 1-((R)-2-(5-fluoro-2-methoxyphenyl)-2-((tetrahydro-2H-pyran-4-yl)oxy)ethyl)-5-methyl-3-(1-methyl-2-oxopiperidin-3-yl)-6-(2H-1,2,3-triazol-2-yl)thieno[2,3-d]pyrimidine-2,4(1H,3H)-dione] | – | – | – | 10 to 100 nM | 0.7 to 2 nM | 0.25 to 1 µg/mL (≈ 0.408 to 1.63 µM) | 0.25 to 1 µg/mL (≈ 0.408 to 1.63 µM) | 0.25 to 1 µg/mL (≈ 0.408 to 1.63 µM) |
| CCN1CCCC(n2c(=O)c3c(C)c(-n4nccn4)sc3n(C[C@H](OC3CCOCC3)c3cc(F)ccc3OC)c2=O)C1=O (stereo partly drawn) [Compound I-23, 3-(1-ethyl-2-oxopiperidin-3-yl)-1-((R)-2-(5-fluoro-2-methoxyphenyl)-2-((tetrahydro-2H-pyran-4-yl)oxy)ethyl)-5-methyl-6-(2H-1,2,3-triazol-2-yl)thieno[2,3-d]pyrimidine-2,4(1H,3H)-dione] | – | – | – | 2 to 10 nM | 0.7 to 2 nM | 0.25 to 1 µg/mL (≈ 0.399 to 1.6 µM) | 0.25 to 1 µg/mL (≈ 0.399 to 1.6 µM) | 0.25 to 1 µg/mL (≈ 0.399 to 1.6 µM) |
| COc1ccc(F)cc1[C@H](Cn1c(=O)n([C@H]2CCN(C)C2=O)c(=O)c2c(C)c(-n3nccn3)sc21)OC1CCOCC1 [Compound I-35, 1-((R)-2-(5-fluoro-2-methoxyphenyl)-2-((tetrahydro-2H-pyran-4-yl)oxy)ethyl)-5-methyl-3-((S)-1-methyl-2-oxopyrrolidin-3-yl)-6-(2H-1,2,3-triazol-2-yl)thieno[2,3-d]pyrimidine-2,4(1H,3H)-dione] | – | – | – | 10 to 100 nM | 0.7 to 2 nM | 2.1 to 4 µg/mL (≈ 3.51 to 6.68 µM) | 2.1 to 4 µg/mL (≈ 3.51 to 6.68 µM) | 2.1 to 4 µg/mL (≈ 3.51 to 6.68 µM) |
| COc1ccc(F)cc1[C@H](Cn1c(=O)n([C@@H]2CCCN(C)C2=O)c(=O)c2c(C)c(-n3nccn3)sc21)OC1CCOCC1 [Compound I-40, 1-((R)-2-(5-fluoro-2-methoxyphenyl)-2-((tetrahydro-2H-pyran-4-yl)oxy)ethyl)-5-methyl-3-((R)-1-methyl-2-oxopiperidin-3-yl)-6-(2H-1,2,3-triazol-2-yl)thieno[2,3-d]pyrimidine-2,4(1H,3H)-dione] | – | – | – | 10 to 100 nM | 0.7 to 2 nM | 1.1 to 2 µg/mL (≈ 1.8 to 3.26 µM) | 0.25 to 1 µg/mL (≈ 0.408 to 1.63 µM) | 1.1 to 2 µg/mL (≈ 1.8 to 3.26 µM) |
| COc1ccccc1[C@H](Cn1c(=O)n(C2CCNC2=O)c(=O)c2c(C)c(-c3ncco3)sc21)OCCO (stereo partly drawn) [Compound I-53, 1-((R)-2-(2-hydroxyethoxy)-2-(2-methoxyphenyl)ethyl)-5-methyl-6-(oxazol-2-yl)-3-(2-oxopyrrolidin-3-yl)thieno[2,3-d]pyrimidine-2,4(1H,3H)-dione] | – | – | – | 10 to 100 nM | 10 to 100 nM | 2.1 to 4 µg/mL (≈ 3.99 to 7.6 µM) | 2.1 to 4 µg/mL (≈ 3.99 to 7.6 µM) | 2.1 to 4 µg/mL (≈ 3.99 to 7.6 µM) |
| COc1ccccc1[C@H](Cn1c(=O)n(C2CCN(C)C2=O)c(=O)c2c(C)c(-c3ncco3)sc21)OCCO (stereo partly drawn) [Compound I-54, 1-((R)-2-(2-hydroxyethoxy)-2-(2-methoxyphenyl)ethyl)-5-methyl-3-(1-methyl-2-oxopyrrolidin-3-yl)-6-(oxazol-2-yl)thieno[2,3-d]pyrimidine-2,4(1H,3H)-dione] | – | – | – | 10 to 100 nM | 2 to 10 nM | 2.1 to 4 µg/mL (≈ 3.88 to 7.4 µM) | 2.1 to 4 µg/mL (≈ 3.88 to 7.4 µM) | 2.1 to 4 µg/mL (≈ 3.88 to 7.4 µM) |
| COc1ccc(F)cc1[C@H](Cn1c(=O)n(C2CCN(C)C2=O)c(=O)c2c(C)c(-c3ncco3)sc21)OCCO (stereo partly drawn) [Compound I-55, 1-((R)-2-(5-fluoro-2-methoxyphenyl)-2-(2-hydroxy-ethoxy)ethyl)-5-methyl-3-(-methyl-2-oxopyrrolidin-3-yl)-6-(oxazol-2-yl)thieno[2,3-d]pyrimidine-2,4(1H,3H)-dione] | – | – | – | 10 to 100 nM | 0.7 to 2 nM | 2.1 to 4 µg/mL (≈ 3.76 to 7.16 µM) | 2.1 to 4 µg/mL (≈ 3.76 to 7.16 µM) | 2.1 to 4 µg/mL (≈ 3.76 to 7.16 µM) |
